Source: DBAASP
≈ marks a conversion by molar mass, not a printed value. Each block holds one compound with its values, some of them ahead of it.

Experiments:
Assay in all cases: ≥ marks a high value that may be exact or a test limit, other limits are often not marked, values filed in µg/mL are converted to µM
[1] = system: Staphylococcus aureus ATCC 6538
[2] = system: Pseudomonas aeruginosa ATCC 27853
[3] = system: Micrococcus luteus ATCC 49732
[4] = system: Bacillus subtilis ATCC 6633
[5] = system: Escherichia coli ATCC 15597
[6] = system: Klebsiella pneumoniae NCTC 5055
[7] = system: Salmonella typhimurium DA6192
[8] = system: Lactiplantibacillus plantarum 8014
[9] = system: Candida tropicalis CGMCC 2.1975
[10] = system: Candida albicans CGMCC 2.2086
[11] = system: Staphylococcus epidermidis ATCC 12228
[12] = system: Salmonella enterica subsp. enterica serovar Typhimurium C77-31
[13] = system: Lacticaseibacillus rhamnosus 7469
[14] = system: Staphylococcus aureus ATCC 25923
[15] = system: Salmonella enterica subsp. enterica serovar Typhimurium ATCC 14028
[16] = system: Staphylococcus aureus ATCC 29213
[17] = system: Candida parapsilosis CGMCC 2.3989
[18] = system: Klebsiella pneumoniae ATCC 10031
Escherichia coli = system: Escherichia coli
Serratia marcescens = system: Serratia marcescens
[19] = system: Pseudomonas aeruginosa ATCC 9027
[20] = system: Shigella dysenteriae ATCC 9752
[21] = system: Micrococcus luteus ATCC 4698
[22] = system: Bacillus subtilis KCTC 1021
[23] = system: Cryptococcus neoformans ATCC 32045
[24] = system: Pseudomonas aeruginosa ATCC 10145
[25] = system: Candida albicans ATCC 10231
[26] = system: Escherichia coli ATCC 2592
[27] = system: Staphylococcus aureus ATCC 33591
Escherichia coli BW25113 = system: Escherichia coli BW25113

SMILES: CC[C@H](C)[C@H](N)C(=O)N[C@H](C(=O)N[C@@H](CCC(=O)O)C(=O)N[C@H](C(=O)N[C@H](C(=O)N[C@H](C(=O)N[C@H](C(=O)N[C@@H](CC(C)C)C(=O)N[C@@H](CC(C)C)C(=O)N[C@@H](CC(N)=O)C(=O)N[C@@H](CCCN=C(N)N)C(=O)N[C@@H](CC(C)C)C(=O)N[C@H](C(=O)N[C@@H](CC(=O)O)C(=O)N[C@@H](CCCN=C(N)N)C(=O)N[C@@H](CC(C)C)C(=O)N[C@@H](CCC(=O)O)C(=O)N[C@@H](CCCCN)C(=O)O)[C@@H](C)O)[C@@H](C)CC)[C@@H](C)O)[C@@H](C)CC)C(C)C)[C@@H](C)O [ITEVITILLNRLTDRLEK]
MIC [1]: > 100 µM | MIC [2]: > 100 µM | MIC [3]: ≥ 100 µM | MIC [4]: ≥ 100 µM | MIC [5]: ≥ 100 µM | MIC [6]: ≥ 100 µM | MIC [7]: ≥ 100 µM

SMILES: CC[C@H](C)[C@H](N)C(=O)N[C@@H](Cc1cnc[nH]1)C(=O)N[C@@H](Cc1cnc[nH]1)C(=O)N[C@H](C(=O)N[C@@H](Cc1cnc[nH]1)C(=O)N[C@@H](Cc1cnc[nH]1)C(=O)N[C@@H](Cc1cnc[nH]1)C(=O)N[C@H](C(=O)N[C@@H](Cc1cnc[nH]1)C(=O)N[C@@H](Cc1cnc[nH]1)C(=O)N[C@H](C(=O)N[C@@H](Cc1cnc[nH]1)C(=O)N[C@@H](Cc1cnc[nH]1)C(=O)N[C@@H](Cc1cnc[nH]1)C(=O)N[C@H](C(=O)N[C@@H](Cc1cnc[nH]1)C(=O)N[C@@H](Cc1cnc[nH]1)C(=O)N[C@H](C(=O)N[C@@H](Cc1cnc[nH]1)C(=O)N[C@@H](Cc1cnc[nH]1)C(=O)N[C@@H](Cc1cnc[nH]1)C(=O)N[C@H](C(=O)N[C@@H](Cc1cnc[nH]1)C(=O)N[C@@H](Cc1cnc[nH]1)C(=O)N[C@H](C(=O)N[C@@H](Cc1cnc[nH]1)C(=O)N[C@@H](Cc1cnc[nH]1)C(=O)N[C@@H](Cc1cnc[nH]1)C(N)=O)[C@@H](C)CC)[C@@H](C)CC)[C@@H](C)CC)[C@@H](C)CC)[C@@H](C)CC)[C@@H](C)CC)[C@@H](C)CC [IHHIHHHIHHIHHHIHHIHHHIHHIHHH]
MIC [8]: 8 µM (≈ 29.3 µg/mL) | MIC [9]: 1 µM (≈ 3.67 µg/mL) | MIC [10]: 2 µM (≈ 7.33 µg/mL) | MIC [11]: > 64 µM | MIC [12]: ≥ 64 µM | MIC [13]: ≥ 64 µM | MIC [14]: > 64 µM | MIC [15]: 64 µM (≈ 235 µg/mL) | MIC [16]: > 64 µM | MIC [17]: 2 µM (≈ 7.33 µg/mL)

SMILES: C[C@H](NC(=O)[C@H](Cc1ccccc1)NC(=O)[C@H](CCCCN)NC(=O)[C@H](Cc1ccccc1)NC(=O)[C@H](C)NC(=O)[C@H](Cc1ccccc1)NC(=O)[C@H](CCCCN)NC(=O)[C@H](Cc1ccccc1)NC(=O)[C@H](C)NC(=O)[C@H](Cc1ccccc1)NC(=O)[C@H](CCCCN)NC(=O)[C@H](Cc1ccccc1)NC(=O)[C@H](C)NC(=O)[C@H](Cc1ccccc1)NC(=O)[C@H](CCCCN)NC(=O)[C@H](Cc1ccccc1)NC(=O)[C@H](C)NC(=O)[C@H](Cc1ccccc1)NC(=O)[C@H](CCCCN)NC(=O)[C@H](Cc1ccccc1)NC(=O)[C@H](C)NC(=O)[C@H](Cc1ccccc1)NC(=O)[C@H](CCCCN)NC(=O)[C@H](Cc1ccccc1)NC(=O)[C@H](C)NC(=O)[C@H](Cc1ccccc1)NC(=O)[C@@H](N)CCCCN)C(=O)N[C@@H](Cc1ccccc1)C(=O)O [KFAFKFAFKFAFKFAFKFAFKFAFKFAF]
MIC [23]: ≥ 50.9 µM | MIC [24]: ≥ 72 µM | MIC [25]: > 144 µM | MIC [26]: ≥ 288 µM | MIC [27]: ≥ 144 µM

SMILES: CC[C@H](C)[C@H](NC(=O)CN)C(=O)N[C@@H](CC(C)C)C(=O)N[C@@H](CC(=O)O)C(=O)N[C@H](C(=O)N[C@@H](CC(C)C)C(=O)N[C@@H](CCCCN)C(=O)N[C@@H](CCC(N)=O)C(=O)N[C@@H](Cc1ccccc1)C(=O)N[C@@H](C)C(=O)N[C@@H](CCCCN)C(=O)NCC(=O)N[C@H](C(=O)NCC(=O)N[C@@H](CCCCN)C(=O)N[C@@H](Cc1ccccc1)C(=O)N[C@@H](CC(C)C)C(=O)N[C@H](C(=O)N[C@@H](CCCCN)C(=O)NCC(=O)N[C@@H](C)C(=O)N[C@@H](C)C(=O)N[C@@H](CCC(N)=O)C(=O)O)C(C)C)C(C)C)[C@@H](C)O [GILDTLKQFAKGVGKFLVKGAAQ]
MIC [18]: ≥ 41.8 µM | MIC (Escherichia coli): 10.5 µM (≈ 25 µg/mL) | MIC (Serratia marcescens): ≥ 83.7 µM | MIC [19]: 83.7 µM (≈ 200 µg/mL) | MIC [15]: > 83.7 µM | MIC [20]: 20.9 µM (≈ 50 µg/mL) | MIC [21]: ≥ 83.7 µM | MIC [22]: 10.5 µM (≈ 25 µg/mL)

Now from value to compound:

MIC [1]: 5.2 µM (≈ 10.7 µg/mL) | MIC [2]: 3.1 µM (≈ 6.36 µg/mL) | MIC [3]: 1.05 µM (≈ 2.16 µg/mL) | MIC [4]: 4.7 µM (≈ 9.65 µg/mL) | MIC [5]: 3.1 µM (≈ 6.36 µg/mL) | MIC [6]: 12.5 µM (≈ 25.7 µg/mL) | MIC [7]: 16.7 µM (≈ 34.3 µg/mL)
SMILES: CC[C@H](C)[C@H](N)C(=O)N[C@H](C(=O)N[C@@H](CCCCN)C(=O)N[C@H](C(=O)N[C@H](C(=O)N[C@@H](C)C(=O)N[C@@H](CCCCN)C(=O)N[C@@H](CC(C)C)C(=O)N[C@@H](CC(C)C)C(=O)N[C@@H](CC(N)=O)C(=O)N[C@@H](CCCN=C(N)N)C(=O)N[C@@H](CC(C)C)C(=O)N[C@H](C(=O)N[C@@H](CCCCN)C(=O)N[C@H](C(=O)N[C@@H](CC(C)C)C(=O)N[C@@H](CO)C(=O)N[C@@H](CCCCN)C(=O)O)[C@@H](C)CC)[C@@H](C)O)[C@@H](C)CC)C(C)C)[C@@H](C)O [ITKVIAKLLNRLTKILSK]

MIC [1]: > 50 µM | MIC [2]: 2.08 µM (≈ 4.3 µg/mL) | MIC [3]: 1.05 µM (≈ 2.17 µg/mL) | MIC [4]: 4.2 µM (≈ 8.69 µg/mL) | MIC [5]: 2.8 µM (≈ 5.79 µg/mL) | MIC [6]: 25 µM (≈ 51.7 µg/mL) | MIC [7]: 16.7 µM (≈ 34.5 µg/mL)
SMILES: CC[C@H](C)[C@H](N)C(=O)N[C@H](C(=O)N[C@@H](CCCCN)C(=O)N[C@H](C(=O)N[C@H](C(=O)N[C@H](C(=O)N[C@@H](CCCCN)C(=O)N[C@@H](CC(C)C)C(=O)N[C@@H](CC(C)C)C(=O)N[C@@H](CC(N)=O)C(=O)N[C@@H](CCCN=C(N)N)C(=O)N[C@@H](CC(C)C)C(=O)N[C@@H](CO)C(=O)N[C@@H](CCCCN)C(=O)N[C@H](C(=O)N[C@@H](CC(C)C)C(=O)N[C@@H](CO)C(=O)N[C@@H](CCCCN)C(=O)O)[C@@H](C)CC)[C@@H](C)O)[C@@H](C)CC)C(C)C)[C@@H](C)O [ITKVITKLLNRLSKILSK]

MIC [18]: ≥ 82.8 µM | MIC (Escherichia coli): > 82.8 µM | MIC (Serratia marcescens): ≥ 82.8 µM | MIC [19]: > 82.8 µM | MIC [15]: > 82.8 µM | MIC [20]: ≥ 82.8 µM | MIC [21]: ≥ 82.8 µM | MIC [22]: ≥ 82.8 µM
SMILES: CC[C@H](C)[C@H](NC(=O)CN)C(=O)N[C@@H](CC(C)C)C(=O)N[C@@H](CC(=O)O)C(=O)N[C@H](C(=O)N[C@@H](CC(C)C)C(=O)N[C@@H](CCCCN)C(=O)N[C@@H](CCC(N)=O)C(=O)N[C@@H](Cc1ccccc1)C(=O)N[C@@H](C)C(=O)N[C@@H](CCCCN)C(=O)NCC(=O)N[C@H](C(=O)NCC(=O)N[C@@H](Cc1c[nH]c2ccccc12)C(=O)N[C@@H](CC(=O)O)C(=O)N[C@@H](CC(C)C)C(=O)N[C@H](C(=O)N[C@@H](CCCCN)C(=O)NCC(=O)N[C@@H](C)C(=O)N[C@@H](C)C(=O)N[C@@H](CCC(N)=O)C(=O)O)C(C)C)C(C)C)[C@@H](C)O [GILDTLKQFAKGVGWDLVKGAAQ]

MIC (Escherichia coli BW25113): 16 µM (≈ 38.2 µg/mL)
SMILES: CC[C@H](C)[C@H](NC(=O)[C@@H]1CCCN1C(=O)[C@H](CCCN=C(N)N)NC(=O)[C@H](CCCN=C(N)N)NC(=O)[C@H](CCCN=C(N)N)NC(=O)[C@@H](N)CCCN=C(N)N)C(=O)N[C@@H](CCCN=C(N)N)C(=O)N[C@@H](CCCN=C(N)N)C(=O)N[C@@H](CCCN=C(N)N)C(=O)N1CCC[C@H]1C(=O)N[C@H](C(=O)N[C@@H](CCCN=C(N)N)C(=O)N1CCC[C@H]1C(=O)N1CCC[C@H]1C(=O)N[C@@H](Cc1c[nH]c2ccccc12)C(=O)N[C@@H](Cc1ccc(O)cc1)C(=O)N[C@@H](CCCN=C(N)N)C(=O)O)[C@@H](C)CC [RRRRPIRRRPIRPPWYR]
